Assay results taken from patent publication US9845322B2 (Hoffmann-La Roche Inc., priority 2016, dated 2017).

These molecules were tested on HBsAg secretion in HepG2.2.15 cells (assay: HBsAg assay (chemiluminescence immunoassay of secreted HBsAg in culture supernatant)). Conditions: HepG2.2.15 cells; concentration at which HBsAg secretion was reduced by 50% compared to the no drug control; read-out: IC50 (HBsAg assay).
Format: cell-based, HBV
Protocol: HepG2.2.15 cells (Acs et al. Proc Natl Acad Sci USA, 84, (1987), 4641-4), a constitutively HBV-expressing cell line were cultured in DMEM+Glutamax-I medium (Invitrogen, Carlsbad, Calif., USA), supplemented with 10% fetal bovine serum (Invitrogen) and G418 (Invitrogen) at a final concentration of 200 mg/L and maintained in 5% CO2 at 37° C.
HepG2.2.15 cells were seeded in duplicate into white, 96-well plates at 1.5×10^4 cells/well. The cells were treated with a three-fold serial dilution series of the compounds in DMSO. The final DMSO concentration in all wells was 1% and DMSO was used as no drug control.
The HBsAg chemiluminescence immunoassay (CLIA) kit (Autobio Diagnostics Co., Zhengzhou, China, Catalog number: CL0310-2) was used to measure the levels of secreted HBV antigens semi-quantitatively. For the detection 50 μL/well culture supernatant was used and HBsAg was quantified using HBsAg chemiluminescence immunoassay (CLIA) kit (Autobio Diagnostics Co., Zhengzhou, China, Catalog number: CL0310-2), 50 μL of the supernatant was transferred to the CLIA assay plate and 50 μL of enzyme conjugate reagent was added into each well. The plates were sealed and gently agitated for 1 hour at room temperature. The supernatant-enzyme-mixture was discarded and wells were washed 6 times with 300 μL of PBS. The residual liquid was removed by plating the CLIA plate […] on absorbent tissue paper. 25 μL of substrates A and B were added to each well. Luminance was measured using a luminometer (Mithras LB 940 Multimode Microplate Reader) after 10 minutes incubation. Dose-response curves were generated and the IC50 value was extrapolated by using the E-WorkBook Suite (ID Business Solutions Ltd., Guildford, UK). The IC50 was defined as the compound concentration (or conditioned media log dilution) at which HBsAg secretion was reduced by 50% compared to the no drug control.
The compounds according to formula I were tested for their capacity to inhibit HBsAg as described herein.

Compound | IC50 [nM]
CC1c2cnc(-c3ccccn3)nc2CCN1c1ccc([N+](=O)[O-])cc1 (single isomer, unassigned; (+)) [Example 2, (+)-5-methyl-6-(4-nitrophenyl)-2-(2-pyridyl)-7,8-dihydro-5H-pyrido[4,3-d]pyrimidine] | 2060
COc1cc(N2CCc3nc(-c4ccccn4)ncc3C2C)cc(F)c1F (single isomer, unassigned; (+)) [Example 6, (+)-6-(3,4-difluoro-5-methoxy-phenyl)-5-methyl-2-(2-pyridyl)-7,8-dihydro-5H-pyrido[4,3-d]pyrimidine] | 8070
CCC1c2cnc(-c3ccccn3)nc2CCN1c1cc(F)c(F)c(OC)c1 (single isomer, unassigned; (+)) [Example 10, (+)-6-(3,4-difluoro-5-methoxy-phenyl)-5-ethyl-2-(2-pyridyl)-7,8-dihydro-5H-pyrido[4,3-d]pyrimidine] | 21900
CCCC1c2cnc(-c3ccccn3)nc2CCN1c1cc(F)c(F)c(OC)c1 (single isomer, unassigned; (+)) [Example 13, (+)-6-(3,4-difluoro-5-methoxy-phenyl)-5-propyl-2-(2-pyridyl)-7,8-dihydro-5H-pyrido[4,3-d]pyrimidine] | 14400
COc1cc(N2CCc3nc(-c4ncccn4)ncc3C2C)cc(F)c1F (single isomer, unassigned; (+)) [Example 16, (+)-6-(3,4-difluoro-5-methoxy-phenyl)-5-methyl-2-pyrimidin-2-yl-7,8-dihydro-5H-pyrido[4,3-d]pyrimidine] | 1520
COCCOc1cc(N2CCc3nc(-c4ccccn4)ncc3C2C)cc(F)c1F (single isomer, unassigned; (+)) [Example 20, (+)-6-[3,4-difluoro-5-(2-methoxyethoxy)phenyl]-5-methyl-2-(2-pyridyl)-7,8-dihydro-5H-pyrido[4,3-d]pyrimidine] | 5010
COc1cc(N2CCc3nc(-c4ncccn4)ncc3C2C)cc(Cl)c1F (single isomer, unassigned; (+)) [Example 42, (+)-6-(3-chloro-4-fluoro-5-methoxy-phenyl)-5-methyl-2-pyrimidin-2-yl-7,8-dihydro-5H-pyrido[4,3-d]pyrimidine] | 3250
CC1c2cnc(-c3ncccn3)nc2CCN1c1cc(O)c(F)c(F)c1 (single isomer, unassigned; (+)) [Example 46, (+)-2,3-difluoro-5-(5-methyl-2-pyrimidin-2-yl-7,8-dihydro-5H-pyrido[4,3-d]pyrimidin-6-yl)phenol] | 8170
CC1c2cnc(-c3ncccn3)nc2CCN1c1cc(F)c(F)c(OCCCS(C)(=O)=O)c1 (single isomer, unassigned; (+)) [Example 48, (+)-6-[3,4-difluoro-5-(3-methylsulfonylpropoxy)phenyl]-5-methyl-2-pyrimidin-2-yl-7,8-dihydro-5H-pyrido[4,3-d]pyrimidine] | 184
CC1c2cnc(-c3ncccn3)nc2CCN1c1cc(F)c(F)c(OCCCCCCN)c1 (single isomer, unassigned; (+)) [Example 61, (+)-6-[2,3-difluoro-5-[5-methyl-2-pyrimidin-2-yl-7,8-dihydro-5H-pyrido[4,3-d]pyrimidin-6-yl]phenoxy]hexan-1-amine] | 3320
CC1c2cnc(-c3ncccn3)nc2CCN1c1cc(F)c(F)c(OCC(N)=O)c1 (single isomer, unassigned; (+)) [Example 67, (+)-2-[2,3-difluoro-5-[5-methyl-2-pyrimidin-2-yl-7,8-dihydro-5H-pyrido[4,3-d]pyrimidin-6-yl]phenoxy]acetamide] | 32300
COc1cc(F)cc(N2CCc3nc(-c4ncccn4)ncc3C2C)c1 (single isomer, unassigned; (+)) [Example 74, (+)-6-(3-fluoro-5-methoxy-phenyl)-5-methyl-2-pyrimidin-2-yl-7,8-dihydro-5H-pyrido[4,3-d]pyrimidine] | 2250
COc1cc(F)nc(N2CCc3nc(-c4ncccn4)ncc3C2C)c1 (single isomer, unassigned; (+)) [Example 139, (+)-6-(6-fluoro-4-methoxy-2-pyridyl)-5-methyl-2-pyrimidin-2-yl-7,8-dihydro-5H-pyrido[4,3-d]pyrimidine] | 1590
CC1c2cnc(-c3ncccn3)nc2CCN1c1cc(N2CCCC2)cc(F)n1 (single isomer, unassigned; (+)) [Example 201, (+)-6-(6-fluoro-4-pyrrolidin-1-yl-2-pyridyl)-5-methyl-2-pyrimidin-2-yl-7,8-dihydro-5H-pyrido[4,3-d]pyrimidine] | 124
CC1c2cnc(-c3ncccn3)nc2CCN1c1cc(F)cc(N(C)C)n1 (single isomer, unassigned; (+)) [Example 204, (+)-4-fluoro-N,N-dimethyl-6-[5-methyl-2-pyrimidin-2-yl-7,8-dihydro-5H-pyrido[4,3-d]pyrimidin-6-yl]pyridin-2-amine] | 113
CC1c2cnc(-c3ncccn3)nc2CCN1c1cc(N(C)C)cc(F)n1 (single isomer, unassigned; (+)) [Example 206, (+)-2-fluoro-N,N-dimethyl-6-[5-methyl-2-pyrimidin-2-yl-7,8-dihydro-5H-pyrido[4,3-d]pyrimidin-6-yl]pyridin-4-amine] | 285
CC1c2cnc(-c3ccccn3)nc2CCN1c1ccc([N+](=O)[O-])cc1 (single isomer, unassigned; (-)) [Example 3, (−)-5-methyl-6-(4-nitrophenyl)-2-(2-pyridyl)-7,8-dihydro-5H-pyrido[4,3-d]pyrimidine] | 115
COc1cc(N2CCc3nc(-c4ccccn4)ncc3C2C)cc(F)c1F (single isomer, unassigned; (-)) [Example 7, (−)-6-(3,4-difluoro-5-methoxy-phenyl)-5-methyl-2-(2-pyridyl)-7,8-dihydro-5H-pyrido[4,3-d]pyrimidine] | 12
CCC1c2cnc(-c3ccccn3)nc2CCN1c1cc(F)c(F)c(OC)c1 (single isomer, unassigned; (-)) [Example 11, (−)-6-(3,4-difluoro-5-methoxy-phenyl)-5-ethyl-2-(2-pyridyl)-7,8-dihydro-5H-pyrido[4,3-d]pyrimidine] | 85
CCCC1c2cnc(-c3ccccn3)nc2CCN1c1cc(F)c(F)c(OC)c1 (single isomer, unassigned; (-)) [Example 14, (−)-6-(3,4-difluoro-5-methoxy-phenyl)-5-propyl-2-(2-pyridyl)-7,8-dihydro-5H-pyrido[4,3-d]pyrimidine] | 2970
COCCOc1cc(N2CCc3nc(-c4ccccn4)ncc3C2C)cc(F)c1F (single isomer, unassigned; (-)) [Example 21, (−)-6-[3,4-difluoro-5-(2-methoxyethoxy)phenyl]-5-methyl-2-(2-pyridyl)-7,8-dihydro-5H-pyrido[4,3-d]pyrimidine] | 50
CC1c2cnc(-c3ncccn3)nc2CCN1c1cc(O)c(F)c(F)c1 (single isomer, unassigned; (-)) [Example 45, (−)-2,3-difluoro-5-(5-methyl-2-pyrimidin-2-yl-7,8-dihydro-5H-pyrido[4,3-d]pyrimidin-6-yl)phenol] | 176
CC1c2cnc(-c3ncccn3)nc2CCN1c1cc(F)c(F)c(OCCCS(C)(=O)=O)c1 (single isomer, unassigned; (-)) [Example 49, (−)-6-[3,4-difluoro-5-(3-methylsulfonylpropoxy)phenyl]-5-methyl-2-pyrimidin-2-yl-7,8-dihydro-5H-pyrido[4,3-d]pyrimidine] | 34
CC1c2cnc(-c3ncccn3)nc2CCN1c1cc(F)c(F)c(OCCCCCCN)c1 (single isomer, unassigned; (-)) [Example 60, (−)-6-[2,3-difluoro-5-(5-methyl-2-pyrimidin-2-yl-7,8-dihydro-5H-pyrido[4,3-d]pyrimidin-6-yl)phenoxy]hexan-1-amine] | 22

Same assay, conditions: Hepatitis B virus, HepG2.2.15, HepG2.2.15 cells; concentration at which HBsAg secretion was reduced by 50% compared to the no drug control; read-out: IC50 (HBsAg assay)

Compound | IC50 [nM]
COc1cc(F)c(Cl)c(N2CCc3nc(-c4ncccn4)ncc3C2C)c1Cl (single isomer, unassigned; (+)) [Example 123, (+)-6-(2,6-dichloro-3-fluoro-5-methoxy-phenyl)-5-methyl-2-pyrimidin-2-yl-7,8-dihydro-5H-pyrido[4,3-d]pyrimidine] | 1140
COc1c(Cl)c(F)cc(N2CCc3nc(-c4ncccn4)ncc3C2C)c1Cl (single isomer, unassigned; (+)) [Example 124, (+)-6-(2,4-dichloro-5-fluoro-3-methoxy-phenyl)-5-methyl-2-pyrimidin-2-yl-7,8-dihydro-5H-pyrido[4,3-d]pyrimidine] | 1250
COc1cc(N2CCc3nc(-c4ncccn4)ncc3C2C)c(Cl)c(F)c1Cl (single isomer, unassigned; (+)) [Example 125, (+)-6-(2,4-dichloro-3-fluoro-5-methoxy-phenyl)-5-methyl-2-pyrimidin-2-yl-7,8-dihydro-5H-pyrido[4,3-d]pyrimidine] | 1120
